Measurements: patent US20260125374A1, “PI3K-ALPHA INHIBITORS AND METHODS OF MAKING AND USING THE SAME” (Relay Therapeutics, Inc., priority 2021, published 2026)
Marks after values point to notes of the source that are not given here.

Key:
Assay type in all cases: physicochemical
[1] = Investigation of I-3 Form A in different humidity (VH-XRPD, humidity chamber); details: for form after humidity chamber (XRPD): 1 week
Method: According to the DVS result of I-3 Form A, two hydrate forms (a mono-hydrate, and a bis-hydrate) may exist when relative humidity is above 50% RH. Variable humidity XRPD (VH-XRPD) was investigated attempting to capture the potential hydrate(s).
To further evaluate form conversion of I-3 Form A, this salt was placed in different humidity (30% RH, 40% RH and 50% RH) chambers for 1 week.
I-3 Form A was used as starting material. One RH cycle was applied at 25° C. XRPD analysis was carried out in each specific relative humidity. Cycle: 39% RH (initial)-10% RH (2h)-40% RH (2h)-50% RH (2h)-70% RH (2h). Meanwhile, I-3 Form A was exposed to 30% RH, 40% RH and 50% RH chamber for 1 week. Samples were analyzed by XRPD using air tight container.

[2] = Stability of I-1 solution during concentration (pH, temperature; chiral purity); details: for Purity / ee %: 1N HCl; for ee %: start ee 98.43%
[3] = Behavior under compression
Method: About 20 mg of I-1 Form A was compressed for 5 minutes at 2 MPa, 5 MPa and 10 MPa with a hydraulic press. XRPD characterization was performed to investigate the polymorphic behavior under compression.
About 20 mg of Form A was compressed for 5 minutes at 2 MPa, 5 MPa and 10 MPa with a hydraulic press. XRPD characterization was performed to investigate the polymorphic behavior under compression.

[4] = Light impact on chiral purity
Method: Four reactions were carried out to study the impact of light on chiral purity under neutral and basic condition.

[5] = Stability of I-1 solution during concentration (pH, temperature; chiral purity); details: for ee % before concentration: starting value before stirring; for ee % of the product after stirring: from 98.20%
Method: To study the chiral stability of product I-1 during concentration, three batches I-1 from Prep-HPLC was tried under different conditions: 1) The ee % of the product changes from 98.20% to 78.95% after stirring over 18 h at 45-50° C. with pH 6-7. 2) The ee % of the product changes from 98.20% to 97.64% after stirring over 18 h at 20-25° C. with pH 6-7. 3) The ee % of the product changes from 98.20% to 98.15% after stirring over 18 h at 45-50° C. with pH 5-6.
Two reactions at 0.5 g I-1 (after SFC preparation) were carried out for stability study. 1) Compound is stable after stirring over 20 h at 10-20° C. with pH 4. 2) The ee % of this compound change from 98.43% to 98.16% after stirring over 20 h at 40-50° C. with pH 4.

[6] = Investigation of factors impacting racemization
Text: Therefore, the factors impacting racemization were investigated including pH, temperature, molecular sieve and experimental duration. […] It is worth noted that racemization can be accelerated when solvents are pretreated by molecular sieve, since the pH value is shifted to basic after pretreatment.
During DSC test for I-1 Form A, different heating rates result in different thermal events. To investigate whether racemization occurs during heating, I-1 Form A was heated to different temperatures then obtained solids were tested by SFC.

[7] = Stability of III-1 & I-1 solid; details: after 55 days; initial 99.2%
[8] = Granulation simulation experiments
Method: Ethanol (without pretreatment by molecular sieve) and pure water were added drop wise to about 20 mg of I-1 Form A separately until solid is wetted sufficiently. Manually grind the samples with a mortar and pestle for about 5 min. Samples were dried under ambient condition for 10 min. Form transformation and degree of crystallinity were evaluated by XRPD.
Ethanol (without pretreatment by molecular sieve) and pure water were added drop wise to about 20 mg of Form A separately until solid is wetted sufficiently. Manually grind the samples with a mortar and pestle for about 5 min. Samples were dried under ambient condition for 10 min. Form transformation and degree of crystallinity were evaluated by XRPD.

[9] = 10-20° C. MeOH, pH 4, stir for 4 h
[10] = after heating to 260° C. at 2° C./min by DSC
[11] = after heating to 300° C. at 2° C./min by DSC

Structure (SMILES): N#Cc1c(-c2cc(NC(=O)c3cc(F)cc(C(F)(F)F)c3)c3c(c2)C(=O)N[C@H]3c2cc(F)ccc2Cl)ccc2ncnn12 [Compound I-3]
- form after humidity chamber (XRPD) ([1]; 30% RH): additional peaks belongs to Form B
- form after humidity chamber (XRPD) ([1]; 40% RH and 50% RH): converted to I-3 Form B
- I-3 Form B pattern in VH-XRPD ([1]; 50% RH, 25° C.): started to show up
- form by VH-XRPD ([1]; 70% RH, 25° C.): fully converted to a new form, I-3 Form B
- XRPD ([1]; Chamber, 25° C., 30% RH (1 week), air tight container for XRPD): I-3 Form A + 2Theta 17.5°
- XRPD ([1]; Chamber, 25° C., 40% RH (1 week), air tight container for XRPD): I-3 Form B
- XRPD ([1]; Chamber, 25° C., 50% RH (1 week), air tight container for XRPD): I-3 Form B
- XRPD ([1]; VH-XRPD, 25° C., 10% RH (2 h)): I-3 Form A
- XRPD ([1]; VH-XRPD, 25° C., 39% RH (initial)): I-3 Form A
- XRPD ([1]; VH-XRPD, 25° C., 40% RH (2 h)): I-3 Form A
- XRPD ([1]; VH-XRPD, 25° C., 50% RH (2 h)): I-3 Form A + 2Theta 17.3°
- XRPD ([1]; VH-XRPD, 25° C., 70% RH (2 h)): I-3 Form B

Structure (SMILES): N#Cc1c(-c2cc(NC(=O)c3cc(F)cc(C(F)(F)F)c3)c3c(c2)C(=O)N[C@H]3c2cc(F)ccc2Cl)ccc2ncnn12 [Compound I-1, (R)-N-(3-(2-chloro-5-fluorophenyl)-6-(5-cyano-[1,2,4]triazolo[1,5-a]pyridin-6-yl)-1-oxoisoindolin-4-yl)-3-fluoro-5-(trifluoromethyl)benzamide]
- Purity [2, 9]: 99.53%
- ee % [2, 9]: 98.33%
- stability in solution ([2]; 10˜20° C. within 68 h): stable
- ee % ([2]; 40-50° C. MeOH, pH 4, stir for 4 h): 98.38%
- Purity ([2]; 40-50° C. MeOH, pH 4, stir for 68 h): 99.29%
- XRPD peaks after compression [3]: slightly broader
- form change under compression (XRPD) ([3]; 5 minutes at 2, 5 and 10 MPa): no form change
- XRPD ([3]; compressed for 5 minutes at 2 Mpa): No form change, but peaks became slightly broader
- XRPD ([3]; compressed for 5 minutes at 5 Mpa): No form change, but peaks became slightly broader
- XRPD ([3]; compressed for 5 minutes at 10 Mpa): No form change, but peaks became slightly broader
- ee % ([4]; Avoid light, basic (KOAc), 1 h): 97.91%
- ee % ([4]; Avoid light, basic (KOAc), 6 h): 94.79%
- ee % ([4]; Avoid light, basic (KOAc), 24 h): 80.92%
- ee % ([4]; Avoid light, basic (KOAc), 96 h): 43.30%
- ee % ([4]; Avoid light, neutral, 0 h): 98.96%
- ee % ([4]; Avoid light, neutral, 6 h): 98.94%
- ee % ([4]; Avoid light, neutral, 24 h): 98.96%
- ee % ([4]; Avoid light, neutral, 96 h): 98.92%
- ee % ([4]; Under light, basic (KOAc), 6 h): 94.35%
- ee % ([4]; Under light, basic (KOAc), 24 h): 76.17%
- ee % ([4]; Under light, basic (KOAc), 96 h): 30.84%
- ee % ([4]; Under light, neutral, 6 h): 98.87%
- ee % ([4]; Under light, neutral, 24 h): 97.15%
- ee % ([4]; Under light, neutral, 96 h): 81.68%
- ee % of product after stirring for 96 h ([4]; base system, avoid-light condition): 43.30%
- ee % of product after stirring for 96 h ([4]; base system, under-light condition): 30.84%
- ee % of product after stirring for 96 h ([4]; neutral system, avoid-light condition): almost unchanged
- ee % of product after stirring for 96 h ([4]; neutral system, under-light condition): 81.68%
- Purity ([5]; 10-20° C. MeOH, 1N HCl, pH 4, stir for 20 h): 99.54%
- ee % ([5]; 10-20° C. MeOH, 1N HCl, pH 4, stir for 20 h, start ee 98.43%): 98.39%
- Purity ([5]; 10-20° C. MeOH, 1N HCl, pH 4, stir for 68 h): 99.53%
- ee % ([5]; 10-20° C. MeOH, 1N HCl, pH 4, stir for 68 h, start ee 98.43%): 98.27%
- ee % ([5]; 20-25° C. MeOH, pH 6-7, stir for 18 h, start ee 98.20%): 97.64%
- Purity ([5]; 40-50° C. MeOH, 1N HCl, pH 4, stir for 4 h): 99.51%
- Purity ([5]; 40-50° C. MeOH, 1N HCl, pH 4, stir for 20 h): 99.37%
- ee % ([5]; 40-50° C. MeOH, 1N HCl, pH 4, stir for 20 h, start ee 98.43%): 98.16%
- ee % ([5]; 40-50° C. MeOH, 1N HCl, pH 4, stir for 68 h, start ee 98.43%): 97.92%
- purity and chiral purity change in solution ([5]; 40˜50° C. stirring for 68 h): slight degrade
- ee % ([5]; 45-50° C. MeOH, 1N HCl, pH 5-6, stir for 18 h, start ee 98.20%): 98.15%
- ee % ([5]; 45-50° C. MeOH, pH 6-7, stir for 18 h, start ee 98.20%): 78.95%
- ee % before concentration ([5]; I-1 after SFC preparation): ee % 98.43%
- ee % before concentration ([5]; I-1 from Prep-HPLC): ee % 98.20%
- stability of compound I-1 solution ([5]; dependence on pH): stable when pH at 4˜5
- ee % of the product after stirring ([5]; over 18 h at 20-25° C. with pH 6-7): 97.64%
- ee % of the product after stirring ([5]; over 18 h at 45-50° C. with pH 5-6): 98.15%
- ee % of the product after stirring ([5]; over 18 h at 45-50° C. with pH 6-7): 78.95%
- stability after stirring ([5]; over 20 h at 10-20° C. with pH 4): stable
- ee % after stirring ([5]; over 20 h at 40-50° C. with pH 4, from 98.43%): 98.16%
- ee %(SFC) ([6]; Batch #1 as received, SFC after preparation for 12 h): ee % (SFC): 97.7%#;
- ee %(SFC) ([6]; Batch #1 as received, SFC immediately after preparation): ee % (SFC): 100.0%*
- XRPD [6, 10]: XRPD: low crystallinity
- ee %(SFC) [6, 10]: ee % (SFC): 88.1%*
- ee %(SFC) ([6]; after heating to 270° C. at 2° C./min by DSC): ee % (SFC): 10.9%*
- XRPD [6, 11]: XRPD: amorphous form
- ee %(SFC) [6, 11]: ee % (SFC): 2.2%*
- racemization during heating (DSC, solids tested by SFC) ([6]; certain high temperatures): racemization indeed occurred
- racemization in different solvents ([6]; sped up by basic pH, high temperature, longer time, exposure to light): racemization easily occurs
- purity of solid after storage [7]: 99.2%
- form change on granulation simulation (XRPD) ([8]; ethanol and water): no form change
- XRPD ([8]; granulation simulation with Ethanol): No form and crystallinity change
- XRPD ([8]; granulation simulation with water): No form and crystallinity change
